Measurements: patent publication US20140213536A1, “MARKETING N-METHY[…] RELATED SUBSTANCES FOR USE IN TREATING/ LESSENING THE OCCURRENCE OF HOT FLASHES RELATED TO MENOPAUSE” (DSM IP ASSETS B.V., priority 2013, published 2014)
“And” between values parts separate entries of the source, which are not always exact repeats. Equal entries are not always repeated.

How the values were obtained:
[1] = tested on: ovariectomized female rats; experiment: Forced swim test (depressive-like behaviors); assay type: in vivo, rat
Method: Swim Test. Each rat was examined in the swim test for depressive-like behaviors. The test was performed over two consecutive days since it is a measure of an adaptive response to a perceived inescapable situation. The first test establishes to the animal that it is an inescapable situation, and the second test measures the animal's degree of passive coping derived from an unwillingness to maintain effort in an inescapable situation. Typical antidepressants limit the amount of passive coping (immobility) and promote the amount of active coping (swimming/climbing). On day one (0800 h to 1300 h), animals were acclimated to the test by placing them in a plexiglass cylindrical container (45 cm×20 cm) filled with 30 cm of fresh water (25° C.) for fifteen minutes, after which they were toweled dried and returned to their home cage. On day two (24 hrs later) the test was performed for a total swim time of five minutes, after which the rats were toweled dried and returned to their home cage. Both trials were recorded by a digital video camera was secured to the ceiling above the cylinders and connected to a laptop. Total time spent swimming and immobile was measured real-time by behavioral software (Anymaze, Stoelting Co.), and scored post hoc by a blinded experimenter from captured video. […] Immobility was defined as absence of any movement except for slight movements necessary for the animal to keep its head above water. Climbing was defined as rapid movement of the forelimbs that broke the surface of the water.

[2] = tested on: ovariectomized female rats; experiment: CGRP-induced hot flash / skin temperature in ovariectomized rats; assay type: in vivo, rat; conditions: for CGRP response of skin temperature above baseline (representative data, FIG. 3) / basal skin temperature (representative data, FIG. 3): NMS 0.48 or 18.5 ug/kg/d through diet, estradiol subcutaneous; for CGRP response of skin temperature above baseline (representative data, FIG. 3) / basal skin temperature (representative data, FIG. 3) / CGRP-induced hot flash response (repeated measures ANOVA, FIG. 9A): vs untreated controls; for CGRP-induced hot flash response (repeated measures ANOVA, FIG. 9A): seed supplying NMS-glucoside or NMS oxalate 18.5 or 55.5 μg/kg/d in diet, estradiol implant
Source text: (§1) The animals arrived at approximately 60 days of age, and were placed on specific diets throughout the study (to approximately 160 days of age). The diets were formulated and provided by Dyets Inc. (Bethlehem, Pa.) and are based on a modified AIN-93G diet. These diets were fed ad libitum. Two weeks after arrival, at approximately 80 days of age, the animals were ovariectomized, allowed to recover for three weeks, and then placed on defined diets. In the first study, these diets contained 0, 0.08, 0.48, 3.2, 18.5, 185, or 3700 μg/kg/day of NMS dihydrochloride (FIG. 2). In the second, follow-up study, the diets contained no NMS (control), NMS oxalate (18.5 or 55.5 μg/kg/d), or milled Zanthoxylum seed in quantities that supplied NMS-glucoside at equivalent doses (18.5 or 55.5 μg/kg/d; FIG. 8). The NMS and NMS-glucoside content was verified using liquid chromatography with mass spectrometric detection. Extraction methods were similar to those of Yanase et al., 2010.
(§2) All diets were fed for 2 weeks prior to the first behavioral assessment (open field). Positive control animals received a 5.0 mm subcutaneous silastic capsule implant packed with a crystalline 17β-estradiol and cholesterol mixture (25%, 0.058 inch inner diameter, 0.077 inch outer diameter; Dow Corning #508-006). Animals were then examined for locomotor activity (open field) and in two behavioral assays to assess mood (elevated plus maze and swim test) separated by two weeks in-between each assay. Two weeks after the final behavioral task (swim test), the animals were anesthetized and their physiological response to an experimentally-induced hot flash was tested. After the temperature monitoring was complete, tissue was harvested while the animals were still anesthetized.
Ovariectomy. Two weeks after arrival, each animal was anesthetized via isoflurane inhalation and the dorsal mid-lumbar area was shaved and swabbed with surgical scrub, iodine and alcohol. The animal was then placed on a warm heat pad covered by a sterile cloth/pad in ventral recumbency with tail towards surgeon. A 2-3 cm dorsal midline skin incision was made halfway between the caudal edge of the ribcage and the base of the tail. A single transverse incision of 5.5-10 mm long was made into the muscle wall on both the right and left sides approximately ⅓ of the distance between the spinal cord and the ventral midline. The ovary and the oviduct were exteriorized through the muscle wall. A hemostat was clamped around the uterine vasculature between the oviduct and uterus and the uterine vasculature was ligated with dissolvable suture. Each ovary and part of the oviduct was removed with single cuts through the oviducts near the ovary. The hemostat was removed, and the remaining tissue replaced into the peritoneal cavity. The ovary on the other side was removed in a similar manner. The muscle incision is not sutured. Sterile wound clips were used to close the skin incision. Animals were monitored daily for signs of infection or morbidity.
Hot Flash Studies. Animals were anesthetized with intraperitoneal co-injection of urethane (750 mg/kg) and α-chloralose (60 mg/kg). […] Thermistor probes (ADI Instruments, Colorado Springs, Colo.) were taped to the plantar surfaces of one hind foot. Forty minutes later, after anesthesia-induced hypothermia had stabilized, the basal skin temperature was recorded. Temperature monitoring then occurred at 5-second intervals throughout the remainder of the experiment. Calcitonin gene related peptide (CGRP; 10 μg/kg, i.v.) dissolved in saline was then injected via the tail vein. A maximum of eight animals were tested at the same time due to limitations on instrumental throughput. Cage mates were always tested together in order to avoid the stresses of single-housing and the potential stress hormone effects on body temperature. Therefore only four groups could be tested within any one given day.

[3] = tested on: ovariectomized female rats; experiment: Uterine weight (uterotrophic effect) in ovariectomized rats; assay type: in vivo, rat; conditions: vs ovariectomized controls; for uterine weight (FIG. 6D): first study, after 80 days of supplementation; for uterine weight / uterine growth (FIG. 11A): follow-up study
Source text: as §1, §2

[4] = Body weight of ovariectomized rats on diets; assay type: in vivo, rat; conditions: for body weight throughout experiment (FIG. 6A): vs control diet / all other groups
Source text: as §1, §2

[5] = Circulating (plasma) estradiol in ovariectomized rats; assay type: in vivo, rat; conditions: dietary NMS; for plasma estradiol level (FIG. 5): first study, estradiol implant as positive control
Source text: as §1, §2

[6] = tested on: ovariectomized female rats; experiment: Behavioral measures of mood overall (open field, elevated plus maze, swim test); assay type: in vivo, rat
Method: Animal Handling. Rats were handled each day for four days prior to behavioral analysis. This involved gently removing the animal from its cage and holding it in the experimenter's lap on a towel without restraint, allowing the animal to explore. This acclimatized the animal to handling by experimenters. All behavioral testing occurred in a room adjacent to the colony room, and the animals were acclimated to the test room overnight prior to testing.
(§3) Open Field Task. Animals were tested in the open field to measure overall locomotor activity and basal anxiety state. In the open field test each rat is placed in a novel environment consisting of an arena measuring 100×100×40 cm. Rats were placed in the middle of the chamber and behavior in the open field was recorded for thirty minutes with a digital camera and measured by software (AnyMaze, Stoelting Co., Inc.). The following parameters were analyzed: a) total distance traveled; b) time in center; c) center entries; and d) number of fecal boli excreted.
Elevated Plus Maze Task. […] Each rat was placed in the central platform facing one of the open arms, and its behavior was recorded during a 5-min testing period with video capture software (AnyMaze). The amount of time spent on open and closed arms and the number of entries into open and closed arms were assessed with video analysis (AnyMaze). […]

[7] = tested on: ovariectomized female rats; experiment: Elevated plus maze task (anxiety-like behaviors); assay type: in vivo, rat
Method: Elevated Plus Maze Task. Animals were tested on the elevated plus maze to measure anxiety-related behavior. The plus-maze is elevated ˜85 cm above the floor and consisted of two open and two closed arms of the same size (50×10 cm). The closed arms were surrounded by walls 40 cm high, and the arms were constructed of black acrylic slabs that radiate from a central platform (10×10 cm) to form a plus sign (Lafayette Instruments, Lafayette, Ind.). Each rat was placed in the central platform facing one of the open arms, and its behavior was recorded during a 5-min testing period with video capture software (AnyMaze). The amount of time spent on open and closed arms and the number of entries into open and closed arms were assessed with video analysis (AnyMaze). In addition, the animals were scored live by the experimenter for time spent rearing, grooming, and number of stretch-attend postures and head dips over the edge of the open arm.

[8] = target: T1, 5-HT7 receptor (Homo sapiens, UniProt P34969); conditions: FIG. 1B, cited from earlier work
T1 sequence (P34969 whole entry): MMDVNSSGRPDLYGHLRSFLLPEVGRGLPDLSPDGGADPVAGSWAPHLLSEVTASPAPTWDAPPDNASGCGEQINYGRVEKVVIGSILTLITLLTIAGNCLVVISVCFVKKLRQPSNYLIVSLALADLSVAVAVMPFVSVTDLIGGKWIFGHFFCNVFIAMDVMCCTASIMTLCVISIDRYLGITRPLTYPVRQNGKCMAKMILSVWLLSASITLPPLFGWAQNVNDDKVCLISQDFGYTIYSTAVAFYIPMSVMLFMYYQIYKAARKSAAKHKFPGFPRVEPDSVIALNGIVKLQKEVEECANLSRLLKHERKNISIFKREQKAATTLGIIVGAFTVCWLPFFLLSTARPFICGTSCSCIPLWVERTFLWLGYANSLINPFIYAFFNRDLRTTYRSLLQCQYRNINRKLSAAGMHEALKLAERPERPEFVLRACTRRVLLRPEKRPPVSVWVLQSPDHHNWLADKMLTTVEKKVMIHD

[9] = target: T1, 5-HT7 receptor; conditions: 5-HT7 vs other 5-HT receptors; cited from earlier work
[10] = tested on: ovariectomized female rats; experiment: Open field task (locomotion, anxiety-like behaviors); assay type: in vivo, rat
Method: as §3

[11] = target: serotonin reuptake transporter (SERT) (Homo sapiens, UniProt P31645); conditions: FIG. 1C, Powell et al., 2008, cited from earlier work
Chain of serotonin reuptake transporter (SERT) (P31645 whole entry, species assumed): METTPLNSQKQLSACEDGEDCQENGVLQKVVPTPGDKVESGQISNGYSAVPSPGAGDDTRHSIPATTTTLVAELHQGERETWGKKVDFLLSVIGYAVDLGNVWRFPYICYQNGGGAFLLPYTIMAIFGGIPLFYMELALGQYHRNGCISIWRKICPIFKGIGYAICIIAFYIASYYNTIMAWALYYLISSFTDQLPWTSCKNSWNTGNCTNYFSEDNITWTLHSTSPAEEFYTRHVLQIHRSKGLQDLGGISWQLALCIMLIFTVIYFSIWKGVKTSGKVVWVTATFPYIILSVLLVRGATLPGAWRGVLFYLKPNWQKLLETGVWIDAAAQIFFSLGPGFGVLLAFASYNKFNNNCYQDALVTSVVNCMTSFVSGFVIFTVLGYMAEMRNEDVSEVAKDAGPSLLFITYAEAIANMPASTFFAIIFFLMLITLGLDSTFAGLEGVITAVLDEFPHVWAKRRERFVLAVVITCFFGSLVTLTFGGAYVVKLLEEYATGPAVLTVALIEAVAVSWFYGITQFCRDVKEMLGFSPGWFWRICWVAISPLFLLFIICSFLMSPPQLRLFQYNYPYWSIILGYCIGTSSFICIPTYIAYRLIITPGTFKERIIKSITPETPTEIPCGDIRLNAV

## C[C@]12CC[C@@H]3c4ccc(O)cc4CC[C@H]3[C@@H]1CC[C@@H]2O [estradiol, 17β-estradiol, reference compound]
[1]; first study
  time immobile, second session of forced swim test (FIG. 7A): spent less time immobile
[2]; first study
  CGRP response of skin temperature above baseline (representative data, FIG. 3): lowest responses to CGRP
  basal skin temperature (representative data, FIG. 3): lowest basal temperatures
[2]; follow-up study
  CGRP-induced hot flash response (repeated measures ANOVA, FIG. 9A): blunted the CGRP-induced hot flash response
[3]
  uterine weight (FIG. 6D): significantly higher uterine weights
  uterine weight / uterine growth (FIG. 11A): significantly higher uterine weights
[4]; first study
  body weight throughout experiment (FIG. 6A): significantly lower body weight
[4]; follow-up study, vs all other groups
  body weight throughout the experiment (FIG. 11B): significantly lower body weight
[5]
  plasma estradiol level (FIG. 5): highest levels of plasma estradiol

## CNCCc1c[nH]c2ccc(O[C@@H]3O[C@H](CO)[C@@H](O)[C@H](O)[C@H]3O)cc12 [NMS-glucoside, N-methylserotonin 5-O-6-glucoside]
[2]; BSA calculation, follow-up study, NMS-glucoside in milled seed
  human equivalent dose (HED): 150 to 540 µg/day

## CNCCc1c[nH]c2ccc(O)cc12 [NMS, N-methylserotonin]
[6]; first study, dietary NMS
  behavioral measures of mood (FIG. 7): did not alter behavioral measures of mood
[6]; follow-up study
  behavioral measures of mood / mood-related behaviors (FIG. 10): did not alter behavioral measures of mood
[1]; first study
  time spent climbing, second session of forced swim test (FIG. 7B): no significant differences amongst groups
[1]; follow-up study
  effect of treatment in the forced swim test (FIG. 10C): No significant effects of treatment
[7]; first study
  time spent in the open arms of elevated plus maze (FIG. 7D): no differences amongst groups
[7]; follow-up study
  effect of treatment in the elevated plus maze (FIG. 10B): No significant effects of treatment
[2]; body surface area (BSA) method, first study
  human equivalent dose (HED) for thermoregulatory effects: 150 to 840 µg/day
[2]; first study, 18.5 ug/kg/d dietary NMS vs untreated controls
  basal skin temperature (FIG. 4): decreased basal skin temperature
[2]; first study
  CGRP response of skin temperature above baseline (representative data, FIG. 3): lower CGRP responses
  basal skin temperature (representative data, FIG. 3): lower basal temperatures
[2]; first study, dietary NMS
  CGRP-induced hot flash response, baseline corrected (repeated measures ANOVA, FIG. 4): blunted the CGRP-induced hot flash response
[2]; follow-up study
  CGRP-induced hot flash response (repeated measures ANOVA, FIG. 9A): blunted the CGRP-induced hot flash response
[8]
  concentration of maximal activation of the 5-HT7 receptor: 50 to 100 nM
[8]; read-out: EC50 of 5-HT7 receptor activation
  EC50: ~0.022 µM and 0.022 µM
[9]
  binding preference among 5-HT receptors: binds preferentially to 5-HT7 receptors over other 5-HT receptors
[3]
  uterine weight (FIG. 6D): did not alter uterine weight
  uterine weight / uterine growth (FIG. 11A): did not alter uterine weight
[10]; first study, 30 minute test
  total distance traveled in open field (FIG. 7C): no differences across groups
[10]; follow-up study
  effect of treatment in the open field (FIG. 10A): No significant effects of treatment
[4]; first study, throughout or at the end of the study
  weight change as a percentage of original weight (FIG. 6B, C): not different between dietary treatments
[4]; first study
  body weight throughout experiment (FIG. 6A): did not alter body weight
[4]; follow-up study
  overall weight change as a percentage of original weight at the end of the study (FIG. 11C): not different between dietary treatments
[4]; follow-up study, vs controls
  weight change as a percentage of original weight over time (FIG. 11B): different between controls and pepper supplemented or NMS supplemented groups
[11]
  fold lower affinity than Prozac at the serotonin reuptake transporter: 100 fold
[11]; read-out: IC50 of serotonin reuptake transporter inhibition
  IC50: ~0.5 µM
[5]
  plasma estradiol level (FIG. 5): increased plasma estradiol in a dose-dependent manner
[5]; ovariectomized rats
  non-uterine estradiol secretion: tripled
